± gives the expanded uncertainty stated by the source.

The conditions of series [1]: 101.33 kPa, Buoyancy - hydrostatic balance.
Series [2] can be described thus: refractive index (Na D-line) (dimensionless). The settings on record: 101.33 kPa, Liquid, Standard Abbe refractometry.

For orientation: mass density means the mass of a sample divided by its volume. On to `Oc1ccc(O)cc1` [1,4-benzenediol], for which the mass density in series [1] (293.2 K, Crystal) came to 1332 ± 3 kg/m3.
As usually defined, the refractive index is a measure of how strongly the sample bends light. `CCCCCCCCO` [octan-1-ol]: the refractive index in series [2] (293.2 K) is reported as 1.4288 ± 0.0005. Moreover, the mass density in series [1] (293.2 K, Liquid) stood at 823.6 ± 0.3 kg/m3.
In the case of `CCCOC(C)=O` [propyl ethanoate], the refractive index in series [2] (293.2 K) is reported as 1.3842 ± 0.0005. Moreover, the mass density in series [1] (293.2 K, Liquid) is on record as 889 ± 2 kg/m3.
Regarding `CCCCC(C)=O` [2-hexanone], in series [2] (293.2 K), the refractive index worked out at 1.40065 ± 0.00054. Further, the mass density in series [1] (293.2 K, Liquid) is listed as 811 ± 2 kg/m3.
For the compound `Oc1ccccc1` [phenol], in series [2] (314.5 K), the refractive index is recorded as 1.54182 ± 0.00051. Further, the mass density in series [1] (314.5 K, Liquid) turned out to be 1058.1 ± 0.3 kg/m3.

(Values after the NIST ThermoML archive (doi:10.1021/acs.jced.5b00918).)
